Laboratory results reported in patent US5670482A, “Neuropeptide Y antagonists” (Glaxo Wellcome Inc., priority 1992, dated 1997).
Each block holds one molecule with its values, some of them ahead of it. Positions of bridges follow the written chain, without caps; N, C: chain ends. Non-standard residues stand in square brackets, D forms with d. Residues, ends and D or L forms follow the SMILES beside them. Chains are numbered I, II in the order given. *: point of attachment. Desaminotyrosyl = O=C(CCc1ccc(O)cc1)*; Orn = NCCC[C@H](N)C(=O)O; Dap = NC[C@H](N)C(=O)O; X1 = Clc1cccc(Cl)c1C*; Aib = CC(C)(N)C(=O)O

Experiments:
[1] = biological target: NPY receptors in rat brain membranes; assay: Radioreceptor binding assay (3H-NPY, rat brain membranes); settings: 37° C.
Description: Rat brain membranes were incubated with ^3 H-NPY up to equilibrium at 37° C. in the presence of several peptides at different concentrations and in a final volume of 1 ml. Non-specific binding was determined by adding 100 nM of cold NPY. At the end of the incubation period the samples were either filtered (GF/C filter), or 0.5 ml of cold incubation buffer was added and the tubes centrifuged at 15,000 g for 10 min. The supernatant was discarded and the pellet or filters resuspended and counted by liquid scintillation. Results were processed using a computer programme that calculated IC50, Kd, Bmax and Hill coefficient by linear regression. IC50 results where available are shown in column (a) of the Table.

[2] = system: Human erythroleukemic (HEL) cells; assay: Intracellular calcium measurements in HEL cells (Fura-2); type: cell-based; settings: for HEL CELLS % Fluor (c): agonistic activity: fluorescence induced by 100 nM of the peptide; for IC50: antagonism of 5 nM NPY-induced calcium signal, read-out: HEL CELLS IC50 (d); for HEL CELLS % INHIB (b): inhibition of increase in HEL cell intracellular calcium induced by 5 nM NPY, 100 nM compound
Description: Human erythroleukemic (HEL) cells were loaded with Fura-2 (1 μM for 1 h), washed and then placed in a cuvette (5×10^5 cells in 2.5 ml) and excited simultaneously at 340 and 380 nm in a SLM spectrofluorometer. Fluorescence changes after the addition of NPY and/or peptide analogs were followed by recording emission at 510 nm. Calcium concentrations can be determined through a computer programme by using the ratio of fluorescence 340/380 nm. The agonistic activity of peptide analogs was tested by recording the fluorescence induced upon stimulation of the cells with 100 nM of the peptide and the antagonistic activity by observing the decrease in fluorescence induced by 5 nM NPY in the presence of the analog The results where available are indicated in column (c) of the Table.
The inhibition of the increase in the HEL cell intracellular calcium (induced by 5 nM NPY) achieved by 100 nM concentrations of each compound is shown in column (b) of the Table.

Molecule: CC[C@H](C)[C@H](NC(=O)CCc1ccc(O)cc1)C(=O)N[C@@H](CC(N)=O)C(=O)N[C@@H](CC(C)C)C(=O)N[C@H](C(=O)N[C@@H](Cc1ccc(O)cc1)C(=O)N[C@@H](CCCNC(=N)N)C(=O)N[C@@H](CC(C)C)C(=O)N[C@@H](CCCNC(=N)N)C(=O)N[C@@H](Cc1ccc(O)cc1)C(N)=O)[C@@H](C)CC [Example 18, desNH2 TyrIleAsnLeuIleTyrArgLeuArgTyr-NH2] (Desaminotyrosyl-INLIYRLRY-NH2)
IC50 [1]: 17 nM
HEL CELLS % Fluor (c) [2]: 28%
HEL CELLS % INHIB (b) [2]: 62%

Molecule: CC[C@H](C)[C@H](N)C(=O)N[C@@H](CSSC[C@H](NC(=O)[C@@H](N)[C@@H](C)CC)C(=O)N1CCC[C@H]1C(=O)N[C@H](C(=O)N[C@@H](Cc1ccc(O)cc1)C(=O)N[C@@H](CCCNC(=N)N)C(=O)N[C@@H](CC(C)C)C(=O)N[C@@H](CCCNC(=N)N)C(=O)N[C@@H](Cc1ccc(O)cc1)C(N)=O)[C@@H](C)CC)C(=O)N1CCC[C@H]1C(=O)N[C@H](C(=O)N[C@@H](Cc1ccc(O)cc1)C(=O)N[C@@H](CCCNC(=N)N)C(=O)N[C@@H](CC(C)C)C(=O)N[C@@H](CCCNC(=N)N)C(=O)N[C@@H](Cc1ccc(O)cc1)C(N)=O)[C@@H](C)CC [Example 13, (IleCysProIleTyrArgLeuArgTyr-NH2)2] (I: H-ICPIYRLRY-NH2 / II: H-ICPIYRLRY-NH2; disulfide I:2-II:2 (inferred); N-terminus assumed)
IC50 [1]: 35 nM
HEL CELLS % Fluor (c) [2]: 0%
IC50 [2]: 0.75 nM
HEL CELLS % INHIB (b) [2]: 100%

Molecule: CC[C@H](C)[C@H](N)C(=O)N[C@@H](CC(N)=O)C(=O)N1CCC[C@H]1C(=O)N[C@H](C(=O)N[C@@H](Cc1ccc(O)cc1)C(=O)N[C@@H](CCCNC(=N)N)C(=O)N[C@@H](CC(C)C)C(=O)N[C@@H](CCCNC(=N)N)C(=O)N[C@@H](Cc1ccc(O)cc1)C(N)=O)[C@@H](C)OC [Example 2, IleAsnPro(O-MethylThr)TyrArgLeuArgTyr-NH2] (H-INPT(Me)YRLRY-NH2)
IC50 [1]: 280 nM
HEL CELLS % Fluor (c) [2]: 0%
IC50 [2]: 5 nM
HEL CELLS % INHIB (b) [2]: 100%

Molecule: CC[C@H](C)[C@H](N)C(=O)N[C@@H](CC(N)=O)C(=O)N1CCC[C@H]1C(=O)NC(C)(C)C(=O)N[C@@H](Cc1ccc(OCc2c(Cl)cccc2Cl)cc1)C(=O)N[C@@H](CCCNC(=N)N)C(=O)N[C@@H](CC(C)C)C(=O)N[C@@H](CCCNC(=N)N)C(=O)N[C@@H](Cc1ccc(O)cc1)C(N)=O [Example 3, IleAsnProAib[O-(2,6-Dichlorobenzyl)Tyr]ArgLeuArgTyr-NH2] (H-INP[Aib]Y(X1)RLRY-NH2; N-terminus assumed)
IC50 [1]: 350 nM
HEL CELLS % Fluor (c) [2]: 0%
IC50 [2]: 8 nM
HEL CELLS % INHIB (b) [2]: 100%

Molecule: IleCysProCysTyrArgLeuArgTyr-NH2,Cyclic(2,2'), (4,4')-Disulfide Dimer and IleCysProCysTyrArgLeuArgTyr-NH2,Cyclic(2,4'),(4,2')-Disulfide Dimer [Example 6]
IC50 [1]: 250 nM
HEL CELLS % Fluor (c) [2]: 0%
IC50 [2]: 2 nM
HEL CELLS % INHIB (b) [2]: 100%

These reach a lower IC50 [1]. Values come first.

IC50 [1]: 15 nM
IC50 [2]: 1.5 nM
Molecule: CC[C@H](C)[C@H](N)C(=O)N[C@H]1CC(=O)NC[C@@H](C(=O)N[C@@H](Cc2ccc(O)cc2)C(=O)N[C@@H](CCCNC(=N)N)C(=O)N[C@@H](CC(C)C)C(=O)N[C@@H](CCCNC(=N)N)C(=O)N[C@@H](Cc2ccc(O)cc2)C(N)=O)NC(=O)[C@@H]2CCCN2C(=O)[C@@H](NC(=O)[C@@H](N)[C@@H](C)CC)CC(=O)NC[C@@H](C(=O)N[C@@H](Cc2ccc(O)cc2)C(=O)N[C@@H](CCCNC(=N)N)C(=O)N[C@@H](CC(C)C)C(=O)N[C@@H](CCCNC(=N)N)C(=O)N[C@@H](Cc2ccc(O)cc2)C(N)=O)NC(=O)[C@@H]2CCCN2C1=O [Example 7, IleAspProDprTyrArgLeuArgTyr-NH2,Cyclic(2,4'),(2',4)-Diamide] (I: H-IDP[Dap]YRLRY-NH2 / II: H-IDP[Dap]YRLRY-NH2; amide I:2-II:4, I:4-II:2; N-terminus assumed)
HEL CELLS % Fluor (c) [2]: 0%
HEL CELLS % INHIB (b) [2]: 100%

IC50 [1]: < 0.1 nM
IC50 [2]: 0.25 nM
Molecule: CC[C@H](C)[C@H](N)C(=O)N[C@H]1CCC(=O)NCCC[C@@H](C(=O)N[C@@H](Cc2ccc(O)cc2)C(=O)N[C@@H](CCCNC(=N)N)C(=O)N[C@@H](CC(C)C)C(=O)N[C@@H](CCCNC(=N)N)C(=O)N[C@@H](Cc2ccc(O)cc2)C(N)=O)NC(=O)[C@@H]2CCCN2C(=O)[C@@H](NC(=O)[C@@H](N)[C@@H](C)CC)CCC(=O)NCCC[C@@H](C(=O)N[C@@H](Cc2ccc(O)cc2)C(=O)N[C@@H](CCCNC(=N)N)C(=O)N[C@@H](CC(C)C)C(=O)N[C@@H](CCCNC(=N)N)C(=O)N[C@@H](Cc2ccc(O)cc2)C(N)=O)NC(=O)[C@@H]2CCCN2C1=O [Example 15, IleGluProOrnTyrArgLeuArgTyr-NH2,Cyclic(2,4'),(2',4)-Diamide] (I: H-IEP[Orn]YRLRY-NH2 / II: H-IEP[Orn]YRLRY-NH2; amide I:2-II:4, I:4-II:2; N-terminus assumed)
HEL CELLS % Fluor (c) [2]: 0%
HEL CELLS % INHIB (b) [2]: 100%

IC50 [1]: 7.5 nM
IC50 [2]: 2.5 nM
Molecule: CC[C@H](C)[C@H](N)C(=O)N[C@H]1CNC(=O)C[C@@H](C(=O)N[C@@H](Cc2ccc(O)cc2)C(=O)N[C@@H](CCCNC(=N)N)C(=O)N[C@@H](CC(C)C)C(=O)N[C@@H](CCCNC(=N)N)C(=O)N[C@@H](Cc2ccc(O)cc2)C(N)=O)NC(=O)[C@@H]2CCCN2C(=O)[C@@H](NC(=O)[C@@H](N)[C@@H](C)CC)CNC(=O)C[C@@H](C(=O)N[C@@H](Cc2ccc(O)cc2)C(=O)N[C@@H](CCCNC(=N)N)C(=O)N[C@@H](CC(C)C)C(=O)N[C@@H](CCCNC(=N)N)C(=O)N[C@@H](Cc2ccc(O)cc2)C(N)=O)NC(=O)[C@@H]2CCCN2C1=O [Example 8, IleDprProAspTyrArgLeuArgTyr-NH2,Cyclic(2,4'),(2',4)-Diamide] (I: H-I[Dap]PDYRLRY-NH2 / II: H-I[Dap]PDYRLRY-NH2; amide I:2-II:4, I:4-II:2; N-terminus assumed)
HEL CELLS % Fluor (c) [2]: 0%
HEL CELLS % INHIB (b) [2]: 100%

IC50 [1]: 1.9 nM
IC50 [2]: 5 nM
Molecule: CC[C@H](C)[C@H](N)C(=O)N[C@@H](CC(N)=O)C(=O)N1CCC[C@H]1C(=O)NC(CCCC(NC(=O)[C@@H]1CCCN1C(=O)[C@H](CC(N)=O)NC(=O)[C@@H](N)[C@@H](C)CC)C(=O)N[C@@H](Cc1ccc(O)cc1)C(=O)N[C@@H](CCCNC(=N)N)C(=O)N[C@@H](CC(C)C)C(=O)N[C@@H](CCCNC(=N)N)C(=O)N[C@@H](Cc1ccc(O)cc1)C(N)=O)C(=O)N[C@@H](Cc1ccc(O)cc1)C(=O)N[C@@H](CCCNC(=N)N)C(=O)N[C@@H](CC(C)C)C(=O)N[C@@H](CCCNC(=N)N)C(=O)N[C@@H](Cc1ccc(O)cc1)C(N)=O (stereo partly drawn) [Example 14, IleAsnPro TyrArgLeuArgTyr-NH2 (SEQ.ID.No:17) Pim IleAsnPro TyrArgLeuArgTyr-NH2 (SEQ.ID.No:17)]
HEL CELLS % Fluor (c) [2]: 0%
HEL CELLS % INHIB (b) [2]: 100%

IC50 [1]: < 0.1 nM
IC50 [2]: 0.25 nM
Molecule: CC[C@H](C)[C@H](N)C(=O)N[C@H]1CC(=O)NCCC[C@@H](C(=O)N[C@@H](Cc2ccc(O)cc2)C(=O)N[C@@H](CCCNC(=N)N)C(=O)N[C@@H](CC(C)C)C(=O)N[C@@H](CCCNC(=N)N)C(=O)N[C@@H](Cc2ccc(O)cc2)C(N)=O)NC(=O)[C@@H]2CCCN2C(=O)[C@@H](NC(=O)[C@@H](N)[C@@H](C)CC)CC(=O)NCCC[C@@H](C(=O)N[C@@H](Cc2ccc(O)cc2)C(=O)N[C@@H](CCCNC(=N)N)C(=O)N[C@@H](CC(C)C)C(=O)N[C@@H](CCCNC(=N)N)C(=O)N[C@@H](Cc2ccc(O)cc2)C(N)=O)NC(=O)[C@@H]2CCCN2C1=O [Example 16, IleAspProOrnTyrArgLeuArgTyrNH2,Cyclic(2,4'),(2',4)-Diamide] (I: H-IDP[Orn]YRLRY-NH2 / II: H-IDP[Orn]YRLRY-NH2; amide I:2-II:4, I:4-II:2; N-terminus assumed)
HEL CELLS % Fluor (c) [2]: 0%
HEL CELLS % INHIB (b) [2]: 100%
